{"source": "patent US6703367B1", "about": "“Methods for treating hot flashes and gynaecomastia” (Praecis Pharmaceuticals Inc., priority 2001, dated 2004)", "origin": "cited, not measured here", "key": {"[1]": {"test_system": "gynaecomastia", "conditions": "for men in whom gynaecomastia was reduced: middle aged men"}, "[2]": {"test_system": "hot flashes", "conditions": "for reduce hot flashes to: progestin therapy"}}}
{"molecule": "C#C[C@]1(O)CC[C@H]2[C@@H]3CCC4=Cc5oncc5C[C@]4(C)[C@H]3CC[C@@]21C", "note": "[DANAZOL]", "values": [{"measurement": "men in whom gynaecomastia was reduced", "setting": "[1]", "result": "approximately 70%"}]}
{"molecule": "CC(=O)[C@@]1(O)CC[C@H]2[C@@H]3C[C@H](C)C4=CC(=O)CC[C@]4(C)[C@H]3CC[C@@]21C", "note": "[Medroxyprgesterone]", "values": [{"measurement": "reduce hot flashes to", "setting": "[2]", "result": "75-100%"}]}
{"molecule": "CC(=O)O[C@]1(C(C)=O)CC[C@H]2[C@@H]3C=C(C)C4=CC(=O)CC[C@]4(C)[C@H]3CC[C@@]21C", "note": "[Megestrol acetate]", "values": [{"measurement": "reduce hot flashes to", "setting": "[2]", "result": "25-85%"}]}
{"molecule": "CLOMIPHENE", "values": [{"measurement": "effect on gynaecomastia", "setting": "[1]; in vivo", "result": "unsuccessful"}]}
{"molecule": "Medthyldopa", "values": [{"measurement": "decrease of hot flashes", "setting": "[2]; in vivo", "result": 30, "unit": "%"}]}
{"molecule": "Tamoxifen", "values": [{"measurement": "men in whom gynaecomastia was reduced", "setting": "[1]", "result": "approximately 70%"}]}
{"molecule": "clonidine", "values": [{"measurement": "effect on hot flashes, orally administered", "setting": "[2]; oral", "result": "varied"}, {"measurement": "effect on hot flashes, administered transdermally", "setting": "[2]; transdermal, hot flashes due to Tamoxifen", "result": "reduced the frequency and severity of hot flashes"}]}
